# Read-outs that look alike come from different tables or passages of the source.
# Columns and labels:
# P4 MAGI CCR5+ cells = assay: Cytotoxicity (CellTiter 96 AQueous); type: cell-based
# [1] = Cytotoxicity (CellTiter 96 AQueous); type: cell-based; conditions: human
# [2] = target: T1, IN-GCN2 interaction (6xHis-IN / GST-GCN2) (UniProt P04585+Q9P2K8); assay: biochemical; type: binding, HIV-1 IN; human GCN2; conditions: for IC50: IC50, inhibition of IN-GCN2 interaction; for IN-GCN2 interaction (%): screen, single dose 100 µM, single replicate, residual AlphaLISA signal normalized to DMSO control
# HIV-1 IN [3] = target: T2, HIV-1 IN (Human immunodeficiency virus type 1 group M subtype B, UniProt P04585); conditions: cited from earlier work
# HIV-1Laï = assay: microbe, parasite or virus in culture; type: cell-based; conditions: for EC50: 24 h infection, read-out: EC50; for SI (CC50/EC50): selectivity index; for nontoxic concentrations at which a proviral effect was seen: Figure S5
# HIV-1 IN [4] = target: T2, HIV-1 IN; assay: Strand transfer (ST) gel-based assay; type: biochemical; conditions: for apparent IC50, inhibition of ST activity, in words: 400 nM IN, 20 nM substrate, 1 h 37 °C
# GCN2 [5] = target: T3, GCN2 (Homo sapiens, UniProt Q9P2K8); assay: In vitro phosphorylation assay: GCN2 autophosphorylation; type: biochemical; conditions: GCN2 25 nM, IN 700 nM; compound 10 µM to 4.6 nM
# T3 sequence (Q9P2K8 192-1024): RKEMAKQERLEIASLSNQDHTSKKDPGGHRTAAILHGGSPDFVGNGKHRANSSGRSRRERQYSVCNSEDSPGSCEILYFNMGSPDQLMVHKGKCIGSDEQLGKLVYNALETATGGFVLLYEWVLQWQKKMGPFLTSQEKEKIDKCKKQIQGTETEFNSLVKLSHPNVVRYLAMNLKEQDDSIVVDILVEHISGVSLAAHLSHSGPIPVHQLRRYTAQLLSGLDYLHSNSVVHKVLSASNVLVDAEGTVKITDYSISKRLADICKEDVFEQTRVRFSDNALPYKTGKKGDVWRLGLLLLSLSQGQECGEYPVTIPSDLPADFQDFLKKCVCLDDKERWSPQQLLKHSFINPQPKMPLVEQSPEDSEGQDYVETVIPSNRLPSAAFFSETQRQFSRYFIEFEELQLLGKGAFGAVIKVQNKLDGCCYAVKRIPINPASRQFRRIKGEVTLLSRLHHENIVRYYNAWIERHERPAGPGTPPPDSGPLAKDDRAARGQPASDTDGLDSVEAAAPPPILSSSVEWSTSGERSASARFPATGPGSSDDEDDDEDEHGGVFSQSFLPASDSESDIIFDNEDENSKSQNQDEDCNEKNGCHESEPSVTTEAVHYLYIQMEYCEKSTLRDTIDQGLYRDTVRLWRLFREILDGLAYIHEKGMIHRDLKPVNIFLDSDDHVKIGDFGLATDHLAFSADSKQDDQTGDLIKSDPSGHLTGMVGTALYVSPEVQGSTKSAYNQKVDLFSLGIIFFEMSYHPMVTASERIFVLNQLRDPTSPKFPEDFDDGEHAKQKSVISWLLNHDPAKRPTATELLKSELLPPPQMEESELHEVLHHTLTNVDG
# [6] = target: T4, phosphorylation of IN by GCN2 (UniProt P04585+Q9P2K8); assay: In vitro phosphorylation assay: phosphorylation of IN by GCN2; type: biochemical, HIV-1 IN; human GCN2; conditions: GCN2 25 nM, IN 700 nM; compound 10 µM to 4.6 nM
# [7] = target: T1, IN-GCN2 interaction (6xHis-IN / GST-GCN2); set-up: method as in earlier work; conditions: single dose 100 µM, previous data ref 26; cited from earlier work
# GCN2 [8] = target: T3, GCN2; set-up: method as in earlier work; conditions: previous study ref 26; cited from earlier work
# [9] = target: T4, phosphorylation of IN by GCN2; set-up: method as in earlier work; conditions: previous study ref 26; cited from earlier work
# [10] = target: GST-GCN2, active truncated human GCN2 (192-1024) with an N-terminal GST tag (human) (UniProt Q9P2K8); assay: AlphaScreen or HTRF
# [11] = SAR study, fresh dilutions from powder, at least three independent experiments
# [12] = Human immunodeficiency virus 1, MAGI, 24 h
# [13] = P4 MAGI CCR5+ cells, 24 h, read-out: CC50
# [14] = plated compounds of the screen, dose-response 100 µM to 46 nM (Figure 1B), n = 9
molecule,measurement,setting,value
COc1cccc2c1C(=O)c1c(O)c3c(c(O)c1C2=O)CC(O)(C(=O)CO)CC3OC1CC(N2CCOCC2C#N)C(O)C(C)O1 (centres unmarked) [Compound 1p],"lowest dose used, at which compound was still toxic",P4 MAGI CCR5+ cells; human,about 2 nM
same,CC50,"[1]; 24 h, read-out: CC50",< 0.002 µM
same,IC50,[2]; [11],61.1 µM
COc1cccc2c1C(=O)c1c(O)c3c(c(O)c1C2=O)CC(O)(C(=O)CO)CC3OC1CC(N(C)C)C(O)C(C)O1 (centres unmarked) [Compound 1r],"inhibition of IN in vitro, in words",HIV-1 IN [3],micromolar inhibitors
same,CC50 at 24 h,[1],0.225 µM
same,IC50,[2]; [11],> 100 µM
"COc1cc(OC)c2c(O)c3c(c(-c4ccc5cc6c(c(O)c5c4O)C(=O)CC(C)(O)C6)c2c1)CC(C)OC3C (centres unmarked) [Compound 2b, Karwinskia toxin T-544]",IC50,"HIV-1 IN [3]; read-out: IC50, inhibition of both 3′-P and ST",21 µM
same,CC50 at 24 h,"[1]; 24 h, read-out: CC50",> 5 µM
same,EC50,HIV-1Laï; [12],> 5 µM
O=C1c2ccccc2C(=O)c2c(NCCNCCO)ccc(O)c21 [Compound 2d],CC50 at 24 h,[1]; [13],> 5 µM
same,fold loss of potency at inhibiting ST compared to NSC279836,HIV-1 IN [4],around 20 fold
same,ST activity compared to the DMSO control,HIV-1 IN [4]; increase at lower concentrations,up to 170%
same,IC50,[2]; [11],1.2 µM
same,"viral replication, maximum, relative to DMSO control",HIV-1Laï; dose-dependent increase (pro-viral effect),up to 290%
CCOC(=O)N1CCc2cc(OC)c(OC)c3c2c1cc1cc(OC)c(OC)cc13 [Compound 3d],CC50 at 24 h,[1]; [13],> 5 µM
same,IC50,[2]; [11],71 µM
same,"effect on HIV replication, in words",HIV-1Laï,decrease in viral replication
same,EC50,HIV-1Laï,1.02 µM
same,EC50,HIV-1Laï; [12],1 µM
same,SI (CC50/EC50),HIV-1Laï,>4.9
COc1cc2c(cc1OC)-c1c3c(cc4c1[C@H](C2)N(C)CC4)OCO3 [Compound 3e],CC50 at 24 h,[1],> 5 µM
same,IC50,[2]; [11],73 µM
same,EC50,HIV-1Laï; [12],> 5 µM
S=c1[nH]c2ccccc2nc1NCc1ccccc1 [Compound 3f],CC50 at 24 h,[1]; [13],> 5 µM
same,IC50,[2]; [11],83 µM
same,EC50,HIV-1Laï,2.37 µM
same,EC50,HIV-1Laï; [12],2.4 µM
same,SI (CC50/EC50),HIV-1Laï,>2.1
COc1cc2c3c(c1)-c1c(ccc(OC)c1O)CC3N(C)CC2 (centres unmarked) [Compound 3i],CC50 at 24 h,[1],> 5 µM
same,IC50,[2]; [11],> 100 µM
same,EC50,HIV-1Laï; [12],> 5 µM
"CCC1(O)CC(OC2CC(N(C)C)C(OC3CC(O)C(OC4CCC(=O)C(C)O4)C(C)O3)C(C)O2)c2c(cc3c(c2O)C(=O)c2c(O)ccc(O)c2C3=O)C1C(=O)OC (centres unmarked) [NSC18334, cinerubin A]",CC50,"[1]; 24 h, read-out: CC50",> 5 µM
same,"apparent IC50, inhibition of ST activity, in words",HIV-1 IN [4],low-micromolar
same,"effect on GCN2 autophosphorylation, in words",GCN2 [5],inhibited GCN2 autophosphorylation
same,"inhibition of IN phosphorylation, in words",[6],full inhibition
same,IN-GCN2 interaction (%),[2],5.47%
same,EC50,HIV-1Laï; [12],0.79 µM
"CCCCCC1=C/C(=C/c2[nH]c(-c3ccc[nH]3)cc2OC)N=C1C [NSC47147, prodigiosin]",CC50 at 24 h,"[1]; 24 h, read-out: CC50",1.96 µM
same,IC50,"[2]; plated compounds of the screen, dose-response (Figure 1B), n = 9",0.88 µM
same,IN-GCN2 interaction (%),[2],6.31%
same,nontoxic concentrations at which a proviral effect was seen,HIV-1Laï,< 200 nM
COc1cccc2c1C(=O)c1c(O)c3c(c(O)c1C2=O)C[C@@](O)(C(C)=O)C[C@@H]3O[C@H]1C[C@H](N)[C@H](O)[C@H](C)O1 [NSC82151],inhibition of IN-GCN2 interaction,[7],around 70%
same,IN-GCN2 interaction (%),[2],50.79%
CCCCC1CCCCCCc2[nH]c(C=C3N=C(c4ccc[nH]4)C=C3OC)cc21 (centres unmarked) [NSC247562],CC50,"[1]; 24 h, read-out: CC50",3.85 µM
same,IC50,[2]; [14],1.45 µM
same,IN-GCN2 interaction (%),[2],8.97%
same,nontoxic concentrations at which a proviral effect was seen,HIV-1Laï,< 200 nM
"CC(=O)OC(C)C1C2=C(C(=O)CC1(C)O)C(=O)c1c(ccc(-c3ccc4c(c3O)C(=O)C3=C(C4=O)C(C(C)OC(C)=O)C(C)(O)CC3=O)c1O)C2=O (centres unmarked) [NSC248605, Julimycin B2]",IC50,"HIV-1 IN [3]; read-out: IC50, non-selective inhibition of IN activities",140 µM
same,CC50 at 24 h,[1]; [13],> 5 µM
same,IC50,[2]; [14],30 µM
same,IN-GCN2 interaction (%),[2],6.97%
same,"effect on HIV replication, in words",HIV-1Laï,anti-
same,EC50,"HIV-1Laï; Human immunodeficiency virus 1, MAGI",0.167 µM
CC(=O)[C@]1(O)Cc2c(O)c3c(c(O)c2[C@@H](O[C@H]2C[C@H](N)[C@H](O)[C@H](C)O2)C1)C(=O)c1ccccc1C3=O [NSC256439],inhibition of IN-GCN2 interaction,[7],around 70%
"O=C1c2c(O)ccc(O)c2C(=O)c2c(NCCNCCO)ccc(NCCNCCO)c21 [NSC279836, mitoxantrone, reference compound]",CC50 at 24 h,[1],> 5 µM
same,concentration up to which GCN2 autophosphorylation was not affected,GCN2 [8],300 µM
same,"apparent IC50, inhibition of IN phosphorylation",[9],low micromolar range
same,IC50,[2]; [11],2.4 µM
"CC1Oc2cc3c(-c4c(O)cc(O)c5c(O)c6c(cc45)OC(C)C(C)C6=O)c(O)cc(O)c3c(O)c2C(=O)C1C (centres unmarked) [NSC345647, chaetochromin]",CC50 at 24 h,"[1]; 24 h, read-out: CC50",> 5 µM
same,"apparent IC50, inhibition of ST activity, in words",HIV-1 IN [4],mid-nanomolar concentration range
same,"effect on GCN2 autophosphorylation, in words",GCN2 [5],inhibited GCN2 autophosphorylation
same,"inhibition of IN phosphorylation, in words",[6],full inhibition
same,IC50,[2]; [14],5.2 µM
same,IN-GCN2 interaction (%),[2],6.36%
same,"effect on HIV replication, in words",HIV-1Laï,inactive
same,EC50,HIV-1Laï,> 5 µM
"COc1cccc2c1C(=O)c1c(O)c3c(c(O)c1C2=O)C[C@@](O)(C(=O)CO)C[C@@H]3O[C@H]1C[C@H](N2CCOCC2)[C@H](O)[C@H](C)O1 [NSC354646, reference compound]","inhibition of IN in vitro, in words",HIV-1 IN [3],micromolar inhibitors
COc1cc2c(cc3c4c(cc5c(c42)OCO5)CCN3C)c(OC)c1OC [NSC785155],CC50 at 24 h,[1]; [13],> 5 µM
same,"inhibition of ST activity, in words",HIV-1 IN [4]; 111 µM to 51 nM,unable to fully inhibit ST even at 111 µM
same,"effect on GCN2 autophosphorylation, in words",GCN2 [5],limited impact
same,"inhibition of IN phosphorylation, in words",[6],partially inhibited
same,IC50,[2]; [11],5.6 µM
same,IC50,[2]; [14],14.5 µM
same,IN-GCN2 interaction (%),[2],8.90%
same,EC50,HIV-1Laï; [12],> 5 µM
COc1cc2c3c(cc4ccccc4c3c1O)N(C)CC2 [NSC785168],CC50,"[1]; 24 h, read-out: CC50",> 5 µM
same,IC50,[2]; [11],17 µM
same,IC50,[2]; [14],5.7 µM
same,IN-GCN2 interaction (%),[2],4.53%
same,EC50,HIV-1Laï; [12],> 5 µM
COc1cc2c3c(c1O)-c1cc(N(Cc4ccccc4)Cc4ccccc4)ccc1CC3N(C)CC2 (centres unmarked) [NSC785176],CC50,P4 MAGI CCR5+ cells; 24 h,> 5 µM
Recombinant full-length HIV-1 integrase (6xHis-IN fusion protein) (enzyme),"AlphaLISA signal (DMSO control, plate 1)",[10],5610 Alpha counts
same,"AlphaLISA signal (DMSO control, plate 2)",[10],3900 Alpha counts
